These results are taken from patent US20240262825A1, “PAIN TREATING COMPOUNDS AND USES THEREOF” (BIONOMICS LIMITED, priority 2018, published 2024).

As usually defined, the IC50 is the midpoint of a concentration-inhibition curve.

The target of this assay is T1, hNav1.7 (Homo sapiens, UniProt Q15858).
T1 construct: expressed in transfected cells
Nature of the assay: hNav1.7 inactivated state (SIS) automated patch clamp electrophysiology. The following applies: inactivated state protocol; for inhibition at 10 µM: HEK293, Assay Conc. 10 uM; for IC50: estimated eIC50 from 2-3 drug concentrations. It is filed as cell-based. As for the experimental part: hNav1.7, hNav1.2, hNav1.3, hNav1.4, hNav1.5, hNav1.6 were stably expressed in human embryonic kidney cells and kept under constant antibiotic selection. For in vitro assays, cells were maintained in appropriate growth medium at 37° C. and 5% CO2 in a humidified incubator.
Nav1.x expressing cells plated in T-25 flasks for 2-3 days prior to use and grown to 70-85% confluence were briefly trypsinized to obtain a single cell suspension of ˜2-3×10^6 cells/ml. All electrophysiological recordings were performed at ambient temperature (21-23° C.) using automated patch clamp (Patchliner, Nanion Technologies GmbH) in the whole-cell configuration using the following solutions: Internal solution contained (in mM): CsCl (50), NaCl (10), CsF (60), EGTA (20), HEPES (10), pH 7.2 KOH, 285 mOsmol·Kg^−1. External (bath) solution contained (in mM): NaCl (140), KCl (4), MgCl2 (1), CaCl2 (2) D-Glucose monohydrate (5), HEPES (10), pH 7.4 NaOH, 298 mOsmol·kg^−1.
For each Nav1.x channel, a steady state inactivation curve was obtained in order to calculate the voltage resulting in 50% channel inactivation (V0.5inact). A 2 pulse protocol was then employed in which cells held at a voltage corresponding to 20 mV more negative to V0.5 inact were depolarised to −10 mV for 20 ms before returning to the previous holding voltage. This test pulse constituted P1 and represents 100% available (non-inactivated) Nav1.x channels. The same cell was then depolarised for 8 s to a voltage corresponding to 7 mV more positive than V0.5inact in order to cause channel inactivation. Following a brief (2 ms) hyperpolarising voltage step to −120 mV (to reset the activation gate), cells were again subjected to a depolarising test pulse (P2) to −10 mV for 20 ms before returning to the holding potential. Each sequence was repeated 6×at 30 s intervals. Using this protocol, control P2 current amplitudes (representing the % channels available following 8 s inactivation) was ˜50% of control P1 current amplitude. 6 repetitions of this recording sequence were made in the control bath solution and then again 2 minutes after compound addition and thereafter at increasing compound concentrations. % inhibition was calculated by (1−(P2drug at repetition 6/P2control at repetition 6))*100. Data were either presented as % block by a single concentration of drug or an estimated eIC50 determined from 2-3 drug concentrations which was determined by fitting data with a sigmoidal dose response curve (variable slope) using GraphPad Prism software (Version 6.0).
All compounds were dissolved in DMSO to 20 mM initially. Subsequent dilutions in DMSO were made to achieve 200×final bath concentrations. DMSO compound stocks were finally diluted 1/200 in bath solution just prior to assay resulting in a final DMSO concentration of 0.5% which was not found to affect control current amplitude.

[1] abbreviates: HEK cells, whole-cell Patchliner, read-out: hNav1.7 SIS (% inh).

T1 sequence (Q15858 whole entry): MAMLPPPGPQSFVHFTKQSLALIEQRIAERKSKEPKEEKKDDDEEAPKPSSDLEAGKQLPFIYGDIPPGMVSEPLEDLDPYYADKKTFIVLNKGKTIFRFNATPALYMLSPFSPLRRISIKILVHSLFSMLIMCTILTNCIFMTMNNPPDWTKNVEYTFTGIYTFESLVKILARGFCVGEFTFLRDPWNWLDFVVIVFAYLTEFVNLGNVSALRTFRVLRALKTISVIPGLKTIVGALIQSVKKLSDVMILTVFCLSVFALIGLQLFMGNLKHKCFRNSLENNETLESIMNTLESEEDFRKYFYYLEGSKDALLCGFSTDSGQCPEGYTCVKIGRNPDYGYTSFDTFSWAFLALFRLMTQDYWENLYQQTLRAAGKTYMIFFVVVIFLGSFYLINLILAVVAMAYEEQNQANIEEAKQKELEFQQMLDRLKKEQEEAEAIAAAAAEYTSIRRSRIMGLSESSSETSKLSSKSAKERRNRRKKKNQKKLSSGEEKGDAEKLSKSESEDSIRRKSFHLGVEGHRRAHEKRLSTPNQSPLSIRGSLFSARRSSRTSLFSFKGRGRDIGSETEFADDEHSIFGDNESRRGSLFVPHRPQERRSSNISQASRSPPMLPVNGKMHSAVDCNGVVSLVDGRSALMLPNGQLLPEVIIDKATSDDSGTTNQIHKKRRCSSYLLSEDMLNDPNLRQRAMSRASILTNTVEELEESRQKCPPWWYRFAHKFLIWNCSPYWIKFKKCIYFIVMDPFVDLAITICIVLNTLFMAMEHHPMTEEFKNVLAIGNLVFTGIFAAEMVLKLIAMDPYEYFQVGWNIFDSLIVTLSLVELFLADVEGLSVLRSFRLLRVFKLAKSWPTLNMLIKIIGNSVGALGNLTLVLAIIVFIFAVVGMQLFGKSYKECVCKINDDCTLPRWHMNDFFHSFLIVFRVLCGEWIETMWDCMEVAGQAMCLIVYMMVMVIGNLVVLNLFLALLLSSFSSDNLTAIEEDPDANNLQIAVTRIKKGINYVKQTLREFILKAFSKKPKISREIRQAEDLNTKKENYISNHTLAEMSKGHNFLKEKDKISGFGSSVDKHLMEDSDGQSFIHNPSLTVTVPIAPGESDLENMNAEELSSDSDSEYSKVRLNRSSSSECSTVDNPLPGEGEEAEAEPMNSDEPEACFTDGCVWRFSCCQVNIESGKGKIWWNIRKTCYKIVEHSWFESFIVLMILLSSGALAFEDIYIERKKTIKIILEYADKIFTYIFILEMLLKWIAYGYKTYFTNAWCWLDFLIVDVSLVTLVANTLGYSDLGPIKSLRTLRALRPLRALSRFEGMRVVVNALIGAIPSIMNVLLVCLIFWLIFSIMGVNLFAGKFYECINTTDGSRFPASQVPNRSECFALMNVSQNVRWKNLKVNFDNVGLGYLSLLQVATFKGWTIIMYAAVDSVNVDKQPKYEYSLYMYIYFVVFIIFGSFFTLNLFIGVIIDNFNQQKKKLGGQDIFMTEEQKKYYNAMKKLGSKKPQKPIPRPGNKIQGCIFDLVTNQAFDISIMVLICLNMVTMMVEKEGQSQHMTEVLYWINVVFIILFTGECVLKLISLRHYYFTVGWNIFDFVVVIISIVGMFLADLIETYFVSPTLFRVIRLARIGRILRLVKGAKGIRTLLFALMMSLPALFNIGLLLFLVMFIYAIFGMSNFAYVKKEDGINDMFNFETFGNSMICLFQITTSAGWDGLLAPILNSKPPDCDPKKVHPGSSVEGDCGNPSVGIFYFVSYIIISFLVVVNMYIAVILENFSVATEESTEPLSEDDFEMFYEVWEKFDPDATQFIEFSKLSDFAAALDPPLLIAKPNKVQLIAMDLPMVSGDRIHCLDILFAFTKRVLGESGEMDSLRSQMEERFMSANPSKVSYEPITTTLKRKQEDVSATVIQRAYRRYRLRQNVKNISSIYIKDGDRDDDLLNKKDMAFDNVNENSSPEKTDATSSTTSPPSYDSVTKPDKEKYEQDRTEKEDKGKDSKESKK

Turning to `O=C(NCc1ccc(OCc2ccccc2F)cc1)c1cccnc1` [Compound 1], the inhibition at 10 µM under setting [1] was found to be 41%.

For the molecule `O=C(NCc1ccc(OCc2ccccc2F)cc1)c1cc2cccn2cn1` [Compound 2], the inhibition at 10 µM under setting [1] came out at 48%.

As for `O=C(NCc1ccc(OCc2ccccc2F)cc1)c1cn[nH]c1` [Compound 3], the inhibition at 10 µM under setting [1] was found to be 34%.

Consider `CN(Cc1ccc(OCc2ccccc2F)cc1)C(=O)c1csc(C(F)(F)F)n1` [Compound 4], for which the inhibition at 10 µM under setting [1] amounted to 36%.

As for `Cc1nc(C(=O)NCc2ccc(OCc3ccccc3F)cc2)cs1` [Compound 5], under setting [1], the inhibition at 10 µM came to 39%.

As for `COc1ncc(C(=O)NCc2ccc(OCc3ccccc3F)cc2)cn1` [Compound 6], the inhibition at 10 µM under setting [1] came to 47%.

For the molecule `CC(C)(Oc1ccc(CNC(=O)c2cccn3cnnc23)cc1)c1ccccc1F` [Compound 7], the inhibition at 10 µM under setting [1] is 35%.

In the case of `Cc1n[nH]c(C(=O)NCc2ccc(OCc3ccccc3F)cc2)n1` [Compound 8], under setting [1], the inhibition at 10 µM came to 44%.

For the molecule `O=C(NCc1ccc(OCc2ccccc2F)cc1)c1nnc(C2CC2)o1` [Compound 9], the inhibition at 10 µM under setting [1] amounted to 35%.

`O=C(NCc1ccc(OCc2ccccc2F)cc1)c1ccn2cnnc2c1` [Compound 10]: under setting [1], the inhibition at 10 µM was found to be 30%.

Consider `O=C(NCc1ccc(OCc2ccccc2F)cc1)c1cc[nH]c(=O)c1` [Compound 11], for which the inhibition at 10 µM under setting [1] came out at 34%.

For `Cn1ccc(C(=O)NCc2ccc(OCc3ccccc3F)cc2)cc1=O` [Compound 12], the inhibition at 10 µM under setting [1] came to 35%.

Consider `O=C(NCc1ccc(OCc2ccccc2F)cc1)c1cccc2ncnn12` [Compound 13], for which the inhibition at 10 µM under setting [1] is 42%.

In the case of `O=C(NCc1ccc(OCc2ccccc2F)cc1)c1cccn2ncnc12` [Compound 14], under setting [1], the inhibition at 10 µM came to 49%.

Turning to `O=C(NCc1ccc(OCc2ccccc2F)cc1)c1ccn2ncnc2c1` [Compound 15], under setting [1], the inhibition at 10 µM worked out at 51%.

As to `Cn1cccc(C(=O)NCc2ccc(OCc3ccccc3F)cc2)c1=O` [Compound 16], the inhibition at 10 µM under setting [1] is 32%.

Regarding `COc1ncccc1C(=O)NCc1ccc(OCc2ccccc2F)cc1` [Compound 17], the inhibition at 10 µM under setting [1] was 32%.

Regarding `O=C(NCc1ccc(OCc2ccccc2F)cc1)c1ccn2cncc2c1` [Compound 18], the inhibition at 10 µM under setting [1] turned out to be 50%.

Turning to `O=C(NCc1ccc(OCc2ccccc2F)cc1)c1cccc2cncn12` [Compound 19], the inhibition at 10 µM under setting [1] worked out at 35%.

As for `O=C(NCc1ccc(OCc2ccccc2F)cn1)c1cccn2cnnc12` [Compound 20], under setting [1], the inhibition at 10 µM is 36%.

Consider `O=C(NCc1ccc(OCc2ccccc2F)cc1)c1cscn1` [Compound 21], for which the inhibition at 10 µM under setting [1] worked out at 52%.

On to `Cc1cnc(C(=O)NCc2ccc(OCc3ccccc3F)cc2)cn1` [Compound 22], for which the inhibition at 10 µM under setting [1] came to 59%.

Turning to `O=C(NCc1ccc(OCc2ccccc2F)cc1)c1csc(C(F)(F)F)n1` [Compound 23], the IC50 was 1.9 µM. For the same molecule, for the setting “HEK293, Assay Conc. 3 uM, HEK cells, whole-cell Patchliner, read-out: hNav1.7 SIS (% inh)”, the inhibition at 3 µM was 61%.

With `COC[C@H](C)N(Cc1ccc(OCc2ccccc2F)cc1)C(=O)c1cn2ccccc2n1` [Compound 24], the IC50 was 7.2 µM. In addition, the inhibition at 10 µM under setting [1] is 63%.

With `O=C(NCc1ccc(OCc2ccccc2F)cc1)c1cn2ccccc2n1` [Compound 25], the IC50 was 5.7 µM. The “hNav1.7 SIS (% inh)” value (Assay Conc. 10 uM, HEK cells, whole-cell Patchliner) is reported as 71%.

For `O=C(NCc1ccc(OCc2ccccc2F)cc1)c1ccn2ccnc2c1` [Compound 26], the IC50 was 5.2 µM.

On to `CN(Cc1ccc(OCc2ccccc2F)cc1)C(=O)c1cn2ccccc2n1` [Compound 27], for which the IC50 is 4.3 µM. For the same molecule, under setting [1], the inhibition at 10 µM turned out to be 92%.

For the molecule `CC(C)(Oc1ccc(CNC(=O)c2cccn3ccnc23)cc1)c1ccccc1F` [Compound 28], the IC50 was 2.6 µM.

With `CC(C)(Oc1ccc(CNC(=O)c2ccn3ccnc3c2)cc1)c1ccccc1F` [Compound 29], the IC50 was 6.5 µM.

With `O=C(NCc1ccc(OCc2ccccc2F)cc1)c1cccn2nnnc12` [Compound 30], the IC50 is 7.5 µM.

Turning to `O=C(NCc1ccc(OCc2ccccc2F)cc1)c1nccn2ccnc12` [Compound 31], the IC50 was 3.2 µM.

On to `Cn1cnc(C(=O)NCc2ccc(OCc3ccccc3F)cc2)n1` [Compound 32], for which the IC50 was 5.9 µM.

Consider `O=C(NCc1ccc(OCc2ccccc2F)cc1)c1nc(C(F)(F)F)cs1` [Compound 33], for which the half-inhibitory concentration (IC50) is 7.5 µM.

Turning to `Cc1csc(C(=O)NCc2ccc(OCc3ccccc3F)cc2)n1` [Compound 34], the IC50 is 9.4 µM.

In the case of `Cc1nc(C(=O)NCc2ccc(OCc3ccccc3F)cc2)sc1C` [Compound 35], the IC50 is 5.5 µM.

With `Cc1cccc(C(=O)NCc2ccc(OCc3ccccc3F)cc2)n1` [Compound 36], the IC50 was 5.6 µM.

On to `O=C(NCc1ccc(OCc2ccccc2F)cc1)c1cnc2ccccn12` [Compound 37], for which the IC50 was 8.9 µM.

On to `O=C(NCc1ccc(OCc2ccccc2F)cc1)c1cccc2ccnn12` [Compound 38], for which the IC50 is 3.2 µM.

As for `O=C(NCc1ccc(OCc2ccccc2F)cc1)c1cccn2cnnc12` [Compound 39], the IC50 is 4.1 µM.

Take `O=C(NCc1ccc(OCc2ccccc2F)cc1)c1cccn2ccnc12` [Compound 40]: the concentration for half-maximal inhibition (IC50) is 3.5 µM.

In the case of `Cc1cc(C(=O)NCc2ccc(OCc3ccccc3F)cc2)n(C)n1` [Compound 41], the IC50 was 8.9 µM.

For `CC(C)c1cc(C(=O)NCc2ccc(OCc3ccccc3F)cc2)n[nH]1` [Compound 42], the IC50 was 6.2 µM.

As for `Cc1nc(C(=O)NCc2ccc(OCc3ccccc3F)cc2)cn1C` [Compound 43], the IC50 is 8.6 µM.

Take `COC[C@@H](C)N(Cc1ccc(OCc2ccccc2F)cc1)C(=O)c1cn2ccccc2n1` [Compound 44]: the IC50 is 6.3 µM.

As to `O=C(NCc1ccc(OCc2ccccc2F)cc1)c1cccn2cncc12` [Compound 45], the IC50 was 7.6 µM.

On to `O=C(NCc1ccc(OCc2ccccc2F)cc1)c1ccc2cncn2c1` [Compound 46], for which, under setting [1], the inhibition at 10 µM was found to be 34%.

As to `O=C(NCc1ccc(OCC2CCCCC2)cc1)c1ccc2cncn2c1` [Compound 47], the IC50 was 3.6 µM.

As to `O=C(NCc1ccc(OCC2CCCCC2)cc1)c1ccn2ccnc2c1` [Compound 48], the IC50 is 5.7 µM.

Turning to `O=C(NCc1ccc(OCC2CCCCC2)cc1)c1cccn2cnnc12` [Compound 49], the concentration for half-maximal inhibition (IC50) is 2.5 µM.

Take `O=C(NCc1ccc(OCC2CCCCC2)cc1)c1cn2ccccc2n1` [Compound 50]: the IC50 is 3.2 µM.

With `O=C(NCc1ccc(OCC2CCCC2)cc1)c1cccn2cnnc12` [Compound 51], the IC50 is 0.98 µM.

In the case of `O=C(NCc1ccc(OCC2CCCC2)cc1)c1ccn2ccnc2c1` [Compound 52], the inhibition at 10 µM under setting [1] worked out at 45%.

As to `O=C(NCc1ccc(OCc2ccccc2F)cc1)c1cn2ccccc2n1` [Compound 53], under setting [1], the inhibition at 10 µM was found to be 56%.
